Reference: article PMC10175484, “Identification of three elevenin receptors and roles of elevenin disulfide bond and residues in receptor activation in Aplysia californica” (Scientific Reports, 2023)
Where two headings read alike, the source gives them in different places. Where a SMILES comes first, the peptide text is derived from it. Bridges are numbered along the chain shown (N, C = ends).

Assays:
[1] = system: apElevR1; test: IP1 accumulation assay, apElevR1 in CHO-K1 cells; assay type: cell-based, Aplysia californica; conditions: for apElevR1 Log[EC50] (M): logarithm of molar EC50, IP1 accumulation, CHO-K1 transiently expressing apElevR1 (pcDNA3.1(+)), no Gα16 co-transfection, peptide 10^-12 to 10^-4 M, 1 h incubation, mean ± SEM, n = 3, NA = no activation, SEM
From the text: (§1) To determine whether the Aplysia elevenin can activate the putative elevenin receptors, we cloned apElevRs to pcDNA3.1 (+) plasmid and transfected the three apElevRs in CHO-K1 cells. We used an IP1 accumulation assay to measure the concentration of IP1, which is a by-product in the Gαq signaling pathway, to provide evidence for the activation of receptors by elevenin. […] Initially, we used the elevenin peptide at two concentrations of 10^–11 M and 10^–4 M to screen apElevR1, apElevR2, and apElevR3. […] Further, we used different concentration gradients of elevenin, ranging from 10^–12 to 10^–4 M, to generate the dose–response curves (Fig. 8B–E).
(§2) Gαq-coupled GPCRs stimulate PLC-β activity, resulting in increased cellular D-Myo-Inositol 1-Phosphate (IP1). When the G protein-coupled receptor (GPCR) expressed in CHO-K1 cells (Procell, CL-0062) is activated, it is generated by the Gαq pathway through the appropriate ligand, and IP3 is formed which is degraded to IP1. Therefore, IP1 can be used as an alternative to IP3. First, the putative receptor cloned into the mammalian expression vector pcDNA3.1( +) of Aplysia was transiently expressed in CHO-K1 cells. CHO-K1 cells were cultured in F-12 K medium (Gibco, 21,127–022) containing 10% fetal bovine serum (Genial, G11-70,500) at 37 °C and 5% CO2. When the cell density in the 6-well plate reached 70–90%, 1.5 μg of putative receptor plasmid [in pcDNA3.1( +)] was mixed with 200 μl buffer (Polyplus) in a 1.5 ml EP tube and incubated at room temperature for 10 min. The DNA/Transfection reagent (Polyplus) mixture was then added dropwise to the 6-well plate, mixed gently, and the cells were incubated overnight at 37 °C and 5% CO2. The next day, cells were digested, counted, diluted to a density of 40,0000 cells/ml, and replated in a white 384-well assay plate (Greiner bio-one, B14061RI), each well inoculated with the diluted liquid 50 μl and incubate overnight at 37 °C in 5% CO2. On the third day, the CHO cells were incubated for 1 h after adding peptide. The activation of putative receptors was detected by monitoring IP1 accumulation using the IP1 detection kit in Tecan Spark (Cisbio, 62IPAPEB). All procedures were performed according to the manufacturer's instructions for the IP1 assay kit. The elevenin peptide and analogs were synthesized by Sangon Biotech or Guoping Pharmaceutical (Supplementary Fig. 4) and were aliquoted in 50 nmol EP tubes and stored at -20 °C until use.
(§3) Dose–response curves and bar graphs for experimental data were plotted using Prism software (GraphPad). Data are expressed as the mean ± SEM. Final EC50 values are rounded to two significant figures. All experimental data were taken from individual animals or preparations, and n refers to the number of preparations. Data were considered significant when P < 0.05. Statistical tests were performed using Prism software. They included Student’s t-test (two groups) and one-way ANOVA (three or more groups).

[2] = system: apElevR2; test: IP1 accumulation assay, apElevR2 in CHO-K1 cells; assay type: cell-based, Aplysia californica; conditions: for EC50 / apElevR2 Log[EC50] (M): IP1 accumulation, NA = no activation; for apElevR2 Log[EC50] (M): logarithm of molar EC50, CHO-K1 transiently expressing apElevR2 (pcDNA3.1(+)), no Gα16 co-transfection, peptide 10^-12 to 10^-4 M, 1 h incubation, mean ± SEM, n = 3, SEM
From the text: as §1, §2, §3

[3] = system: apElevR3; test: IP1 accumulation assay, apElevR3 in CHO-K1 cells; assay type: cell-based, Aplysia californica; conditions: for apElevR3 Log[EC50] (M): logarithm of molar EC50, IP1 accumulation, CHO-K1 transiently expressing apElevR3 (pcDNA3.1(+)), no Gα16 co-transfection, peptide 10^-12 to 10^-4 M, 1 h incubation, mean ± SEM, n = 3, NA = no activation, SEM
From the text: as §1, §2, §3

[4] = system: AstC-R; conditions: peptide could activate AstC-R; cited from earlier work
From the text: It is notable that there are 6 residu ...

[5] = molecular target: elevenin receptor (first of two listed); conditions: CHO cells, Ca2+ response, no Gα16, cited from earlier work
From the text: (§4) Although the function of elevenin was first studied in C.elegans, its actual elevenin receptors have not yet been found in this species. In fact, prior to our work, there are a total of 6 elevenin receptors that have been described (Fig. 7). First, there are two GPCRs that have been deorphanized as elevenin receptors in both annelid Platynereis and arthropod Ixodes[2],[9]^. There is a single elevenin receptor in Nilaparvata lugens or Bombus terrestris[23] although we could not find the sequence for Nilaparvata NlA42 in NCBI. Second, in annelid Platynereis, the EC50 values of two elevenin recep ...

[6] = molecular target: elevenin receptor (second of two listed); conditions: CHO cells, Ca2+ response, no Gα16, cited from earlier work
From the text: as §4

[7] = CHO-K1 transiently expressing apElevR2, no Gα16, 1 h peptide incubation, average of n = 3, rounded to two significant figures, read-out: apElevR2 [EC50]
[8] = screen at 10^-4 M compared with 10^-11 M peptide, CHO-K1, n = 3, Student's t-test (Fig. 8A)

Molecule | apElevR1 Log[EC50] (M) [1] | apElevR2 Log[EC50] (M) [2] | apElevR3 Log[EC50] (M) [3] | further results
CC(C)[C@@H]1NC(=O)[C@H](Cc2ccccc2)NC(=O)[C@H](CCCNC(=N)N)NC(=O)[C@H]([C@@H](C)O)NC(=O)[C@@H](NC(=O)[C@@H](N)CC(=O)O)CSSC[C@@H](C(=O)N[C@@H](CCCNC(=N)N)C(=O)NCC(=O)O)NC(=O)[C@H](C)NC(=O)[C@@H]2CCCN2C(=O)[C@H](C)NC(=O)[C@H](Cc2ccccc2)NC1=O [Elevenin5-17] (H-DCTRFVFAPACRG-OH; disulfide 2-11; N-terminus and C-terminus assumed) | -5.11±0.28 M | -4.31±0.65 M | -5.52±0.18 M | EC50 [2, 7]: > 10000 nM
CC[C@H](C)[C@H](NC(=O)[C@H](CCCNC(=N)N)NC(=O)[C@@H]1CCCN1C(=O)[C@@H](N)CCCNC(=N)N)C(=O)N[C@@H](CC(=O)O)C(=O)N[C@H]1CSSC[C@@H](C(=O)N[C@@H](CCCNC(=N)N)C(=O)NCC(=O)N[C@H](C(=O)N[C@@H](CO)C(=O)N[C@@H](C)C(=O)O)C(C)C)NC(=O)[C@H](C)NC(=O)[C@H](C)NC(=O)[C@H](C)NC(=O)[C@H](Cc2ccccc2)NC(=O)[C@H](C(C)C)NC(=O)[C@H](Cc2ccccc2)NC(=O)[C@H](CCCNC(=N)N)NC(=O)[C@H]([C@@H](C)O)NC1=O [[Ala^13]Elevenin] (H-RPRIDCTRFVFAAACRGVSA-OH; disulfide 6-15; N-terminus and C-terminus assumed) | -6.92±0.13 M | -4.48±0.21 M | -6.42±0.34 M | EC50 ([2]; Table 2 prints no unit, the same values are in nM in Fig. 9J, CHO-K1, n = 3, read-out: EC50 values on apElevR2 (Table 2)): > 10000 nM
CC[C@H](C)[C@H](NC(=O)[C@H](CCCNC(=N)N)NC(=O)[C@@H]1CCCN1C(=O)[C@@H](N)CCCNC(=N)N)C(=O)N[C@@H](CC(=O)O)C(=O)N[C@H]1CSSC[C@@H](C(=O)N[C@@H](CCCNC(=N)N)C(=O)NCC(=O)N[C@H](C(=O)N[C@@H](CO)C(=O)N[C@@H](C)C(=O)O)C(C)C)NC(=O)[C@H](C)NC(=O)[C@@H]2CCCN2C(=O)[C@H](C)NC(=O)[C@H](Cc2ccccc2)NC(=O)[C@H](C(C)C)NC(=O)[C@H](Cc2ccccc2)NC(=O)[C@H](CCCNC(=N)N)NC(=O)[C@H]([C@@H](C)O)NC1=O [Elevenin] (H-RPRIDCTRFVFAPACRGVSA-OH; disulfide 6-15; N-terminus and C-terminus assumed) | -7.60±0.40 M | -8.93±0.34 M | -8.51±0.37 M | Activation of apElevR1 in screening (IP1), in words [1, 8]: could not activate; Activation of apElevR2 in screening (IP1), in words [2, 8]: could not activate; Activation of apElevR3 in screening (IP1), in words [3, 8]: could not activate
AstC without a disulfide bond: Aplysia allatostatin-C (SHYSSMCMFNVVACY) without a disulfide bond (no disulfide bond) |  |  |  | EC50 value on AstC-R compared to AstC with the disulfide bond, in words [4]: significantly higher
PDCTRFVFHPSCRGVAA [Platynereis elevenin, elevenin of annelid Platynereis dumerilii, ligand of its two elevenin receptors (literature)] |  |  |  | EC50 ([5]; Platynereis): 62 nM; EC50 ([6]; Platynereis): 1.3 nM
CC[C@H](C)[C@H](NC(=O)[C@H](CCCNC(=N)N)NC(=O)[C@@H]1CCCN1C(=O)[C@@H](N)CCCNC(=N)N)C(=O)N[C@@H](CC(=O)O)C(=O)N[C@H]1CSSC[C@@H](C(=O)N[C@@H](CCCNC(=N)N)C(=O)NCC(=O)N[C@H](C(=O)N[C@@H](CO)C(=O)N[C@@H](C)C(=O)O)C(C)C)NC(=O)[C@H](C)NC(=O)[C@@H]2CCCN2C(=O)[C@H](C)NC(=O)[C@H](C)NC(=O)[C@H](C(C)C)NC(=O)[C@H](Cc2ccccc2)NC(=O)[C@H](CCCNC(=N)N)NC(=O)[C@H]([C@@H](C)O)NC1=O [[Ala^11]Elevenin] (H-RPRIDCTRFVAAPACRGVSA-OH; disulfide 6-15; N-terminus and C-terminus assumed) | -6.97 ±0.20 M | -6.62±0.10 M | -6.55±0.21 M | 
CC(C)[C@@H]1NC(=O)[C@H](Cc2ccccc2)NC(=O)[C@H](CCCNC(=N)N)NC(=O)[C@H]([C@@H](C)O)NC(=O)[C@@H](N)CSSC[C@@H](C(=O)O)NC(=O)[C@H](C)NC(=O)[C@@H]2CCCN2C(=O)[C@H](C)NC(=O)[C@H](Cc2ccccc2)NC1=O [Elevenin6-15] (H-CTRFVFAPAC-OH; disulfide 1-10) |  |  | -5.20±0.36 M | Effect on apElevR1 (IP1 dose-response), in words ([1]; dose-response, CHO-K1, n = 3 (Fig. 10A, G)): did not have any effect; EC50 [2, 7]: > 10000 nM
LDCRKYPFYYRCRGISA [Ixodes elevenin, elevenin of arthropod Ixodes scapularis, ligand of its two elevenin receptors (literature)] |  |  |  | EC50 ([5]; Ixodes): 0.01 nM; EC50 ([6]; Ixodes): 5.59 nM
